Laboratory results published in patent US4749710A, “Immunosuppressive agents” (priority 1985, dated 1988).

Legend:
[1] = test system: IgG production by human lymphocytes; test: Inhibition of IgG production by human lymphocytes in vitro (SAC activation, ELISA); type: cell-based; conditions: 8 days, vehicle control 0.78 ± 0.09
From the text: (§1) General Test Description Humoral immunity comprises one of the two major arms of the immune system and generally is beneficial. However, a number of disease states are characterized by a hyperactive immune system responding to self tissue antigens. […] In these diseases it would be important to suppress the humoral immune system.
(§2) In the following studies we used established methods to examine the effect of Vitamin D derivatives on the in vitro production of immunoglobulin (Ig) by human peripheral blood leukocytes (PBL) following polyclonal activation. Immunoglobulin was induced from PBL by co-culturing the PBL with the polyclonal B cell activator Staphylococcus aureus strain Cowan I (SAC) for a period of 8 days. The quantity of Ig produced in the culture supernatants was determined by using an enzyme linked immunosorbent assay (ELISA). The effect of Vitamin D derivatives was determined by comparing the amount of antibody produced in cultures containing Vitamin D derivatives to those cultures containing an appropriate concentration of vehicle (ethanol).
(§3) Solutions of vitamin D derivatives. Stock solutions of vitamin D derivatives were prepared as described previously for the murine CTL experiments.
(§4) INDUCTION OF HUMAN IG SECRETION Human peripheral blood mononuclear leukocytes were prepared from one day old buffy coat preparations obtained from the American Red Cross (Lansing, MI). […] Twenty five ml of this preparation were overlayed onto 25 ml of Ficoll-Paque contained in a 50 ml polypropylene centrifuge tube. After centrifugation at 400×g at 15° C. for 40 min, the cells at the interface of the medium and Ficoll were removed and washed 3 times in 50 ml RPMI medium and centrifuged at 300×g for 10 minutes. After the final centrifugation,the cell pellet was suspended in RPMI medium containing 20% fetal bovine serum (FBS) and 80 μg/ml gentamicin. The number of viable cells was determined by trypan blue exclusion and were then suspended to 2.5×10^6 viable cells per ml in RPMI containing 20% FBS and gentamicin. Human PBL were induced to secrete Ig as follows. One hundred microliters of the PBL suspension and an additional 100 μl of a 1:20,000 (v/v) preparation of SAC suspended in RPMI containing 1% FBS were added to each well of a 96-well microtiter plate. Selected wells were also set up without the addition of SAC to serve as negative controls (spontaneous Ig secretion). Each well then received 20 μl of either the appropriate dilution of Vitamin D derivative in RPMI with 1% ethanol or RPMI with 1% ethanol (vehicle control). The vitamin D derivatives were tested at final concentrations of 10^-5, 10^-6, 10^-7, 10^-8, 10^-9, and 10^-10 M and in all cases the vehicle (ethanol) concentration was 0.1%. All treatments were performed in triplicate. […] The samples were then either assayed immediately or stored at -20° C. until assayed by the ELISA technique described below.
(§5) QUANTITATION OF SECRETED IG (ELISA ASSAY) ELISA plates were prepared for quantitating human IgG and IgM levels in culture supernatants as follows. Affinity purified sheep anti-human IgG and goat anti-human IgM (Cappel, Cochranville, PA) were diluted 1:250 and 1:400 respectively, in carbonate coating buffer (0.05M sodium bicarbonate, 0.05M sodium carbonate, 0.15M sodium chloride). One hundred and fifty microliters of the antibody preparation were added to each well of a 96 well ELISA plate (EIA, Costar). The plates were sealed and incubated overnight at 4° C. and on the following day were washed 3 times with distilled water. Each well then received 350 μl of Dulbecco's PBS containing 1 mg/ml bovine serum albumin (BSA) and 0.5 mg/ml sodium azide. The plates were allowed to incubate for 1 hour at 37° C. and then washed 3 times with Dulbecco's PBS containing 0.5% stock Tween 20 (PBS-Tween) followed by 2 washes with distilled water. The plates were air dried and stored desiccated under a vacuum at 4° C. until use.

[2] = test system: IgM production by human lymphocytes; test: Inhibition of IgM production by human lymphocytes in vitro (SAC activation, ELISA); type: cell-based; conditions: 8 days, vehicle control 2.49 ± 0.17
From the text: as §1, §2, §3, §4, §5

Compound | IgG μg per culture (x ± S.E.M.) ([1]; 1 × 10^-6 molar) | IgG μg per culture (x ± S.E.M.) ([1]; 1 × 10^-7 molar) [μg per culture] | IgG μg per culture (x ± S.E.M.) ([1]; 1 × 10^-8 molar) [μg per culture] | IgG μg per culture (x ± S.E.M.) ([1]; 1 × 10^-9 molar) [μg per culture] | IgG μg per culture (x ± S.E.M.) ([1]; 1 × 10^-10 molar) [μg per culture] | IgM μg per culture (x ± S.E.M.) ([2]; 1 × 10^-6 molar) | IgM μg per culture (x ± S.E.M.) ([2]; 1 × 10^-7 molar) [μg per culture] | IgM μg per culture (x ± S.E.M.) ([2]; 1 × 10^-8 molar) [μg per culture] | IgM μg per culture (x ± S.E.M.) ([2]; 1 × 10^-9 molar) [μg per culture] | IgM μg per culture (x ± S.E.M.) ([2]; 1 × 10^-10 molar) [μg per culture]
C=C1/C(=C\C=C2/CCC[C@]3(C)[C@@H]([C@H](C)C[C@H](O)CC(C)(C)O)CC[C@@H]23)C[C@@H](O)C[C@@H]1O [1α,23S,25-(OH)3 --D3, 1α,23S,25-Trihydroxycholecalciferol] | 0.01 ± 0.002 μg per culture | 0.02 ± 0.002 | 0.05 ± 0.01 | 1.14 ± 0.61 | 0.54 ± 0.18 | undetectable | 0.12 ± 0.07 | 0.46 ± 0.13 | 1.55 ± 0.96 | 4.61 ± 0.73
C=C1/C(=C\C=C2/CCC[C@]3(C)[C@@H]([C@H](C)C=CC[C@](C)(O)CO)CC[C@@H]23)C[C@@H](O)C[C@@H]1O [1α,25S,26-(OH)3 --Δ^22 -D3, 1α,25S,26-Trihydroxy-Δ^22-cholecalciferol] | 0.005 ± 0.002 μg per culture | 0.01 ± 0.002 | 0.04 ± 0.01 | 0.06 ± 0.03 | 0.20 ± 0.03 | undetectable | 0.05 ± 0.03 | 0.09 ± 0.04 | 0.24 ± 0.07 | 1.02 ± 0.34
C=C1/C(=C\C=C2/CCC[C@]3(C)[C@@H]([C@H](C)/C=C/[C@H](C)[C@](C)(O)CO)CC[C@@H]23)C[C@@H](O)C[C@@H]1O [1α,25S,26-(OH)3 --D2, 1α,25S,26-Trihydroxyergocalciferol] | undetectable | 0.01 ± 0.005 | 0.07 ± 0.02 | 0.08 ± 0.03 | 0.21 ± 0.06 | 0.01 ± 0.006 μg per culture | 0.03 ± 0.01 | 0.14 ± 0.12 | 0.29 ± 0.17 | 1.09 ± 0.26
